Key:
AURKA [1] = test system: AURKA; set-up: method as in PMID 32338514, PMID 27905678, PMID 27437075, PMID 30232224, PMID 27699881; conditions: literature values, introduction and Figure 1; cited from earlier work
AURKB = test system: AURKB; set-up: method as in PMID 32338514, PMID 27905678, PMID 27437075, PMID 30232224, PMID 27699881; conditions: literature values, introduction and Figure 1; cited from earlier work
human TTK = test system: human TTK; set-up: method as in PMID 23940287, PMID 32338514, PMID 27905678, PMID 27437075, PMID 30232224; conditions: literature values, introduction and Figure 1; cited from earlier work
AURKA [2] = conditions: reported PROTACs; cited from earlier work
TTK = test system: TTK; set-up: method as in PMID 35084180; conditions: reported PROTAC; cited from earlier work
[3] = target: T1, AURKB (MV4-11^AURKB-HiBiT cells) (Homo sapiens, UniProt Q96GD4); assay: HiBiT assay, AURKB degradation; assay type: cell-based; conditions: 6 h treatment
T1 construct: expressed in transfected cells; host or cells: MV4-11, lentiviral transduction (pRRL-PGK vector)
In short: (§1)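 MV4-11 lines stably expressing HiBiT-tagged AURKA, AURKB or TTK (lentiviral) were treated with serial compound dilutions for the indicated times. Remaining tagged protein was read by lytic HiBiT luminescence, and DC50 was fitted with a four-parameter dose–response equation using concentrations showing sigmoidal behaviour.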

[4] = target: T2, AURKA (MV4-11^AURKA-HiBiT cells) (Homo sapiens, UniProt O14965); assay: HiBiT assay, AURKA degradation; assay type: cell-based; conditions: 6 h treatment, MV4-11^AURKA-HiBiT cells
T2 construct: expressed in transfected cells; host or cells: MV4-11, lentiviral transduction
T2 sequence (O14965 1-403): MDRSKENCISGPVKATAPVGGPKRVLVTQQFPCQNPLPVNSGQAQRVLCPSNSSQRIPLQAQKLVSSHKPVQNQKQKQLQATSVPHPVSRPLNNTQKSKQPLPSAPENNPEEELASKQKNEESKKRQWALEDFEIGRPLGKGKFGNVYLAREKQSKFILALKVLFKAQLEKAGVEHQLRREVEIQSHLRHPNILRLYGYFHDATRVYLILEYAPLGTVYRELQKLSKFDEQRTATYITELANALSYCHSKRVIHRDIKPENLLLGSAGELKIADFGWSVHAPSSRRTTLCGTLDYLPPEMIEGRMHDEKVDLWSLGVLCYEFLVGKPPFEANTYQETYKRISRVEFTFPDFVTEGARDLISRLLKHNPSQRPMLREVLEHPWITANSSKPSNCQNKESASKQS
In short: as §1

[5] = target: T3, TTK (MV4-11^HiBiT-TTK cells) (Homo sapiens, UniProt P33981); assay: HiBiT assay, TTK degradation; assay type: cell-based; set-up: key to Dmax (maximal degradation) TTK: compounds with degradation less than 15% reported as “inactive”; conditions: 6 h treatment, MV4-11^HiBiT-TTK cells
T3 construct: expressed in transfected cells; host or cells: MV4-11, lentiviral transduction (pRRL-PGK-HiBiT entry vector)
T3 sequence (P33981 1-857): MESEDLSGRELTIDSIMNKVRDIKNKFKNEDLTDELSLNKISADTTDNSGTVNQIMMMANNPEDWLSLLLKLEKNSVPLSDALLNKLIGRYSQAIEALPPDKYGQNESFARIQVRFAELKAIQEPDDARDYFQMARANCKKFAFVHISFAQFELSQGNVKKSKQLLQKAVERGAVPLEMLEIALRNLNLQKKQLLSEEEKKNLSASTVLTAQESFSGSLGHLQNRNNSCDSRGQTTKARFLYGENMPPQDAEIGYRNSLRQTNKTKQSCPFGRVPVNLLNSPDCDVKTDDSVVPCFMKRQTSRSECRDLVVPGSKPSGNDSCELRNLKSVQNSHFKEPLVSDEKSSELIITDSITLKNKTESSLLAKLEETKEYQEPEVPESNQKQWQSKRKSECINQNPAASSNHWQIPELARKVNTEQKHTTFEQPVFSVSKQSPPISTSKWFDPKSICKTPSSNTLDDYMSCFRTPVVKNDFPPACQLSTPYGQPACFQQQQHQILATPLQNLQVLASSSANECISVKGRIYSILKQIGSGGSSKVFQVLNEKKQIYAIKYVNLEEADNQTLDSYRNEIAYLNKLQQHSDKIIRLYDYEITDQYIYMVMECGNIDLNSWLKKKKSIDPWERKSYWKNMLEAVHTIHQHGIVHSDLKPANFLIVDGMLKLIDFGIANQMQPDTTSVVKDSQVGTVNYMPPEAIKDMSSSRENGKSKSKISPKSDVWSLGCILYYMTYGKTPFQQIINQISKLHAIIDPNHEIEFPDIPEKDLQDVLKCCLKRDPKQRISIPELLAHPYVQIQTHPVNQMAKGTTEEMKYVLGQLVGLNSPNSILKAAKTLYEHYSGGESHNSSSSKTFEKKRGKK
In short: as §1

MV4-11 cells (naive) = assay: alamarBlue cell viability assay; assay type: cell-based, human; conditions: Homo sapiens; 72 h treatment, MV4-11 cells (naive); read-out: EC50 (concentration that decreases cell viability by 50%)
In short: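 Cells exposed to compound concentration series or vehicle for 72 h (unless otherwise stated); alamarBlue added a few hours before end point. Read-out by fluorescence (ex 550/em 600 nm) or absorbance (570 nm, 600 nm reference).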

AURKC = conditions: read-out: AURKC IC50; literature value, introduction; cited from earlier work

T1 sequence (Q96GD4 1-345 isoform Q96GD4-5): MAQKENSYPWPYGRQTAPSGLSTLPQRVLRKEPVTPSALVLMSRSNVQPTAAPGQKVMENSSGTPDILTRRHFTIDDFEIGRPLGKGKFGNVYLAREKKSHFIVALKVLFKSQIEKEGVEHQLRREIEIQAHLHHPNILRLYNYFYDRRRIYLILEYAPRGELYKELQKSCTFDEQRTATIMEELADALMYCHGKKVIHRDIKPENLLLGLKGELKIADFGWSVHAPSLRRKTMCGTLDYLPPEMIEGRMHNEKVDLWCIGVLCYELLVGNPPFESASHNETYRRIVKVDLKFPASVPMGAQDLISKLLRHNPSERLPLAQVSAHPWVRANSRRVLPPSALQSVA

## O=C(Nc1c[nH]nc1-c1nc2ccc(CN3CCOCC3)cc2[nH]1)NC1CC1 [AT9283]
AURKA [1]
  IC50: 3 nM
AURKB
  IC50: 3 nM

## COc1cc(S(C)(=O)=O)ccc1Nc1nc2ccc(-c3ccc(NC(=O)[C@H](C)c4ccc(F)cc4)cc3)cn2n1 [BAY1161909]
Human TTK
  IC50: 1 nM

## Cc1cc(-c2cnn3c(NC[C@H]4C[C@@](C)(O)C4)cc(Oc4cccnc4)nc23)ccc1C(=O)NC1CC1 [CFI-402257]
Human TTK
  IC50: 1 nM

## COc1cc(Nc2ncc3c(n2)-c2ccc(Cl)cc2C(c2c(F)cccc2OC)=NC3)ccc1C(=O)NCCOCCOCCNC(=O)COc1cccc2c1C(=O)N(C1CCC(=O)NC1=O)C2=O (stereo not shown) [JB170]
AURKA [2]
  DC50: 28 nM

## O=C(COc1cccc2c1C(=O)N(C1CCC(=O)NC1=O)C2=O)NCCOCCOCCNC(=O)C1(Cc2cccc(Nc3nccs3)n2)CCC(Oc2cccc(Cl)c2F)CC1 (stereo not shown) [JB300]
AURKA [2]
  DC50: 30 nM

## CCC(=O)N[C@H]1CC[C@@H](n2c(=O)cc(C)c3cnc(Nc4ccc(N5CCN(C(=O)CCCC#Cc6ccc7c(c6)CN(C6CCC(=O)NC6=O)C7=O)CC5)cc4OC)nc32)CC1 (stereo partly shown) [LJB-1113157]
TTK
  DC50: 3.1 nM

## COc1cc(N2CCC(O)CC2)ccc1Nc1nc(Nc2ccccc2S(=O)(=O)C(C)C)c2nc[nH]c2n1 [MPS1-IN-3, reference compound]
[3]; read-out: DC50 (half-maximal degradation concentration) AURKB
  DC50: 3210 nM
[3]; read-out: Dmax (maximal degradation) AURKB
  Dmax: 43.3%
[4]; read-out: DC50 (half-maximal degradation concentration) AURKA
  DC50: 998 nM
[4]; read-out: Dmax (maximal degradation) AURKA
  Dmax: 41.7%
[5]
  DC50 (half-maximal degradation concentration) TTK: – (compounds with degradation less than 25% were not calculated and reported as “–”)
  Dmax (maximal degradation) TTK: inactive
MV4-11 cells (naive)
  EC50: 1270 nM
Human TTK
  IC50: 50 nM

## c1nc2nc(Nc3ccc(N4CCOCC4)cc3)nc(NC3CCCCC3)c2[nH]1 [Reversine]
AURKC
  IC50: 400 nM

Reference: PMC11555526, “Development of 2-Aminoadenine-Based Proteolysis-Targeting Chimeras (PROTACs) as Novel Potent Degraders of Monopolar Spindle 1 and Aurora Kinases” (ACS Pharmacology & Translational Science, 2024)
